The text below walks through data of US6821941B2, “Tablet of compacted particulated cleaning composition” (ISP Investments Inc., priority 2002, dated 2004).

SMILES strings stand for the structures. A value given as a limit tells only on which side of the number the result lay.

A short description of data set [1]: Disintegration rate of dishwashing detergent tablet vs. additive ingredient. As to conditions: additive in standard dishwashing detergent formulation; based on a tablet of 20 g; FIGURE. It is filed as physicochemical. The source says:
The FIGURE is a bar graph of Disintegration Rate (g/min) vs. Additive Ingredient present in a standard dishwashing detergent formulation.
The dishwashing disintegrant tablets of the invention herein have a disintegration rate of at least 40 g/min (based on a tablet of 20 g).

The conditions of data set [2]: grams of solid to form a saturated solution in 100 g of water at 20° C.; cited from earlier work.

As to `NC(N)=O` [Urea], the Disintegration rate result in data set [1] is listed as “minimal”. Also, the “Water Solubility (g/100 g)” value in data set [2] was >100 g/100 g.
